Experimental data taken from US4619938A, “Fatty acid derivatives of aminoalkyl nicotinic acid esters and platelet aggregation inhibitors” (Terumo Kabushiki Kaisha, priority 1984, dated 1986).
Like-named read-outs stand apart in the source and are kept apart here.

Legend:
[1] = system: platelet aggregation caused by arachidonic acid (platelet-rich plasma); assay: Platelet aggregation-inhibitory action, arachidonic acid (100 μM) induced, Born's turbidometric method; assay type: cell-based, rabbit; details: Oryctolagus cuniculus, 0.05 h, read-out: 50% inhibitory concentration, Arachidonic acid
Experimental: (§1) Blood was drawn from the carotid artery of a rabbit using a syringe containing 3.8% solution of sodium citrate in an amount of […] per volume of the solution. The blood was centrifuged to obtain platelet-rich plasma (PRP: 5×10^5 platelets/μl).
(§2) In a cuvette was placed 250 μl of the PRP, which is warmed in a constant-temperature bath at 37° C. for 2 min. To the warmed cuvette was added 20 μl of a solution of an alkanolamine derivative to be tested (a […] ethanol solution which had been diluted with Trisbuffered isotonic saline solution). The mixture was then incubated for 3 min., followed by addition of a aggregation inducer, an arachidonic acid solution or a collagen solution. Measurement of the platelet aggregation was made by Born's turbidometric method (e.g., described in J. Physiol., Vol. 168, P. 178, 1968). The 50% inhibitory concentration for the platelet aggregation caused by arachidonic acid (100 μM) or collagen (20 μg/ml) is given in Table 1 with reference to Aspirin for comparison.
(§3) The 50% inhibitory concentration as shown in the table means the concentration of an alkanolamine derivative required for inhibiting aggregation ability of the platelets to 50% when the aggregation ability of the platelets in the absence of the alkanolamine derivative of the invention is taken as 100%.

[2] = system: platelet aggregation caused by collagen (platelet-rich plasma); assay: Platelet aggregation-inhibitory action, collagen (20 μg/ml) induced, Born's turbidometric method; assay type: cell-based, rabbit; details: Oryctolagus cuniculus, 0.05 h, read-out: 50% inhibitory concentration, Collagen
Experimental: as §1, §2, §3

[3] = rabbit PRP, 37° C., 3 min. incubation, arachidonic acid 100 μM
[4] = rabbit PRP, 37° C., 3 min. incubation, collagen 20 μg/ml

Compound | IC50 [1] [µM] | IC50 [2] [µM] | IC50 [1, 3] [µM] | IC50 [2, 4] [µM]
CC(=O)Oc1ccccc1C(=O)O [Aspirin, reference compound] | 14 | 13.6 |  | 
CC/C=C\C/C=C\C/C=C\C/C=C\C/C=C\CCCC(=O)NCCO [Example 1, N-5,8,11,14,17-eicosapentaenoyl-2-aminoethanol] |  |  | 22 | 98
CC/C=C\C/C=C\C/C=C\C/C=C\C/C=C\CCCC(=O)OCCNC(=O)c1cccnc1 [Example 2, N-nicotinoyl-2-aminoethyl 5,8,11,14,17-eicosapentaenoate] |  |  | 11 | 93
CC/C=C\C/C=C\C/C=C\CCCCCCCC(=O)OCCNC(=O)c1cccnc1 [Example 3, N-nicotinoyl-2-aminoethyl 9,12,15-octadecatrienoate] |  |  | 49 | 140
CCCCC/C=C\C/C=C\C/C=C\CCCCC(=O)OCCNC(=O)c1cccnc1 [Example 4, N-nicotinoyl-2-aminoethyl 6,9,12-octadecatrienoate] |  |  | 36 | 190
CC/C=C\C/C=C\C/C=C\C/C=C\C/C=C\CCCC(=O)NCCOC(=O)c1cccnc1 [Example 5, N-5,8,11,14,17-eicosapentaenoyl-2-aminoethyl nicotinate] |  |  | 8.8 | 90
CC/C=C\C/C=C\C/C=C\C/C=C\C/C=C\CCCC(=O)N(CC)CCO [Example 6, N-ethyl-N-5,8,11,14,17-eicosapentaenoyl-2-aminoethanol] |  |  | 3.57 | 273
CC/C=C\C/C=C\C/C=C\C/C=C\C/C=C\CCCC(=O)N(CCO)CCCC [Example 7, N-butyl-N-5,8,11,14,17-eicosapentaenoyl-2-aminoethanol] |  |  | 3.55 | 187
CC/C=C\C/C=C\C/C=C\C/C=C\C/C=C\CCCC(=O)N(C)CCOC(=O)c1cccnc1 [Example 8, N-methyl-N-5,8,11, 14,17-eicosapentaenoyl-2-aminoethylnicotinate] |  |  | 6.62 | 111
CC/C=C\C/C=C\C/C=C\CCCCCCCC(=O)N(C)CCOC(=O)c1cccnc1 [Example 9, N-methyl-N-9,12,15-octadecatrienoyl-2-aminoethylnicotinate] |  |  | 8.24 | 273
CC/C=C\C/C=C\C/C=C\C/C=C\C/C=C\CCCC(=O)N(CC)CCOC(=O)c1cccnc1 [Example 10, N-ethyl-N-5,8,11,14,17-eicosapentaenoyl-2-aminoethylnicotinate] |  |  | 4.99 | 91.7
CC/C=C\C/C=C\C/C=C\C/C=C\C/C=C\CCCC(=O)N(CCCC)CCOC(=O)c1cccnc1 [Example 11, N-butyl-N-5,8,11,14,17-eicosapentaenoyl-2-aminoethylnicotinate] |  |  | 6.03 | 197
CC/C=C\C/C=C\C/C=C\C/C=C\C/C=C\CCCC(=O)NCCCOC(=O)c1cccnc1 [Example 12, N-5,8,11,14,17-eicosapentaenoyl-3-aminopropylnicotinate] |  |  | 3.44 | 55.3
CC/C=C\C/C=C\C/C=C\C/C=C\C/C=C\CCCC(=O)OCCN(CC)C(=O)c1cccnc1 [Example 13, (N-ethyl-N-nicotinoyl-2-aminoethyl)-5,8,11,14,17-eicosapentaenoate] |  |  | 255 | 401
CC/C=C\C/C=C\C/C=C\C/C=C\C/C=C\CCCC(=O)N(C)CCOCc1cccnc1 [Example 14, [N-methyl-N-(5,8,11,14,17-eicosapentaenoyl)-2-aminoethyl]-β-picolylether] |  |  | 5.68 | 50.1
CC/C=C\C/C=C\C/C=C\C/C=C\C/C=C\CCCC(=O)N(CCCC)CCOCc1cccnc1 [Example 15] |  |  | 7.07 | 123
CC/C=C\C/C=C\C/C=C\C/C=C\C/C=C\CCCC(=O)NCCOCc1cccnc1 [Example 16, (N-5,8,11,14,17-eicosapentaenoyl)-2-aminoethyl β-picolyl ether] |  |  | 5.68 | 50.1
CC/C=C\C/C=C\C/C=C\CCCCCCCC(=O)NCCCOCc1cccnc1 [Example 17, (N-9,12,15-octadecatrienoyl)-3-aminopropyl β-picolylether] |  |  | 7.07 | 123
